Results from article PMC8199291 (Molecules, 2021).
Values joined by “and” are separate entries in the source; they are usually repeats but may differ in a detail not shown here. Identical values can stand only once. “Also recorded” adds a separate entry of the source. Like-named read-outs stand apart in the source and are kept apart here.

How the values were obtained:
[1] = biological target: T1, human FAAH (hFAAH) (Homo sapiens, UniProt O00519); test: FAAH enzyme inhibition assay (Cayman inhibitor screening kit, AMC-arachidonoyl amide, fluorescence); assay type: biochemical; conditions: for FAAH inhibitory activity (in words): in vitro, up to 100 μM
T1 construct: purchased Cayman Item # 10005196
T1 sequence (O00519 1-579): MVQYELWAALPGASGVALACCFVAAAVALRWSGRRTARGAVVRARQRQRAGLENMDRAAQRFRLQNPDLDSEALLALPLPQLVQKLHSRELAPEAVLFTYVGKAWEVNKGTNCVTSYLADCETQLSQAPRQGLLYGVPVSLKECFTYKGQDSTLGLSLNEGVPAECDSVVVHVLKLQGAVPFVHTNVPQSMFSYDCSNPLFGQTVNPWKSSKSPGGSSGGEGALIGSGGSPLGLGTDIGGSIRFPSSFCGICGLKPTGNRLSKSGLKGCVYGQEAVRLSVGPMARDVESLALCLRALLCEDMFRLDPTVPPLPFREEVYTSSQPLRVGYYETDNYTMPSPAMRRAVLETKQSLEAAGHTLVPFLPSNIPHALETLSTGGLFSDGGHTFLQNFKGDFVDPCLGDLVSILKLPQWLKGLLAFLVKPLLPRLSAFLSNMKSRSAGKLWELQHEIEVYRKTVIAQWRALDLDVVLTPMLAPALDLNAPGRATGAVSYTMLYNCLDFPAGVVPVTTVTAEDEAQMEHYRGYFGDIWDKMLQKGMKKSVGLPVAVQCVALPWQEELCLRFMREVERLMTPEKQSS
Method: The manufacturer’s protocol was followed to perform the assay. […] AMC-Arachidonoyl amide, at a concentration of 400 μM, was then used as the FAAH substrate. The samples were mixed for 30 s and incubated at 37 °C for 30 min.

[2] = biological target: T2, human MAGL (hMAGL) (Homo sapiens, UniProt Q99685); test: MAGL enzyme inhibition assay (4-nitrophenylacetate hydrolysis, absorbance 405 nm); assay type: biochemical; conditions: for decrease of MAGL inhibitory activity: relative to the parent compound as worded in the text (disulfiram for 2c, 2d; para substitution of 2h for 2k); for MAGL inhibitory activity (in words): in vitro; as to IC50 (µM) ± SE (hMAGL): 250 µM 4-nitrophenylacetate
T2 construct: purchased Reaction Biology Corp
T2 sequence (Q99685 1-303): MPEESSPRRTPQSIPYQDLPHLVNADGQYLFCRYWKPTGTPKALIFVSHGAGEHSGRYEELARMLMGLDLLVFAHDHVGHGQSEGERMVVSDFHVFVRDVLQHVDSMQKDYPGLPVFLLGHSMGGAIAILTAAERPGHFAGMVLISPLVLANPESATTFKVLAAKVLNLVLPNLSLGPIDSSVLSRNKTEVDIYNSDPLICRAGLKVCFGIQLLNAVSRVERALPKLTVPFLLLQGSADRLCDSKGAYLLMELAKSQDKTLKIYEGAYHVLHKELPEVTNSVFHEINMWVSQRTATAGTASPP
Method: All of the tested compounds were prepared as 10 mM stock solutions in DMSO. […] The plate was mixed for 30 s and incubated at room temperature for 30 min.

[3] = read-out: IC50 (µM) ± SE (hFAAH)
[4] = read-out: IC50 (µM) ± SE (hMAGL)
[5] = 10-dose IC50 mode, 3-fold serial dilution, top 100 μM (JZL195 5 μM), 400 μM AMC-arachidonoyl amide, 37 °C 30 min, average of at least two experiments ± SE

CCN(CC)C(=S)SSC(=S)N(CC)CC [2a, Disulfiram, reference compound]
IC50 [1, 3]: 36 µM and 36.2 µM
IC50 [2, 4]: 0.95 ± 0.26 µM

CC(C)N(C(=S)SSC(=S)N(C(C)C)C(C)C)C(C)C [2b]
IC50 [1, 5]: > 100 µM
IC50 [2, 4]: 1.89 ± 0.37 µM

CCCCN(CCCC)C(=S)SSC(=S)N(CCCC)CCCC [2c]
IC50 [1, 5]: > 100 µM
FAAH inhibitory activity (in words) [1]: no inhibition
IC50 [2, 4]: 7.14 ± 0.21 µM
decrease of MAGL inhibitory activity [2]: up to 15 fold

CC(C)CN(CC(C)C)C(=S)SSC(=S)N(CC(C)C)CC(C)C [2d]
IC50 [1, 5]: > 100 µM
FAAH inhibitory activity (in words) [1]: no inhibition
hydrolytic activity of MAGL inhibited by the compound upon addition of dithiothreitol (reversibility of inhibition) ([2]; absence vs presence of dithiothreitol 10 mM): restored
IC50 [2, 4]: 13.4 ± 4.79 µM
decrease of MAGL inhibitory activity [2]: up to 15 fold

CCN(CCO)C(=S)SSC(=S)N(CC)CCO [2e]
IC50 [1, 3]: 25.4 ± 3.26 µM
IC50 [2, 4]: 0.72 ± 0.2 µM

CCN(CCC(=O)O)C(=S)SSC(=S)N(CC)CCC(=O)O [2f]
IC50 [1, 3]: 12.8 ± 1.57 µM
IC50 [2, 4]: 0.87 ± 0.21 µM

CCOC(=O)CCN(CC)C(=S)SSC(=S)N(CC)CCC(=O)OCC [2g, Bis(N-ethoxycarbonylethylethylthiocarbamoyl)disulphide]
IC50 [1, 3]: 10 ± 0.68 µM
MAGL inhibitory activity (in words) [2]: low micromolar range
IC50 [2, 4]: 3.53 ± 1.32 µM

CCN(Cc1ccccc1)C(=S)SSC(=S)N(CC)Cc1ccccc1 [2h]
IC50 [1, 5]: > 100 µM
FAAH inhibitory activity (in words) [1]: devoid of anti-FAAH activity
IC50 [2, 4]: 5.53 ± 2.62 µM

CCN(Cc1ccc(F)cc1)C(=S)SSC(=S)N(CC)Cc1ccc(F)cc1 [2i]
IC50 [1, 5]: > 100 µM
FAAH inhibitory activity (in words) [1]: devoid of anti-FAAH activity; also recorded: did not show any inhibitory activity
MAGL inhibitory activity (in words) [2]: low micromolar range
IC50 [2, 4]: 3.58 ± 1.54 µM

CCN(Cc1ccc(O)cc1)C(=S)SSC(=S)N(CC)Cc1ccc(O)cc1 [2j]
IC50 [1, 3]: 38.3 ± 7.96 µM
IC50 [2, 4]: 3.71 ± 1.28 µM

CCN(Cc1ccc(C(=O)O)cc1)C(=S)SSC(=S)N(CC)Cc1ccc(C(=O)O)cc1 [2k]
IC50 [1, 5]: > 100 µM
FAAH inhibitory activity (in words) [1]: devoid of anti-FAAH activity
IC50 [2, 4]: 22.6 ± 16.8 µM

CCOC(=O)c1ccc(CN(CC)C(=S)SSC(=S)N(CC)Cc2ccc(C(=O)OCC)cc2)cc1 [2l, Bis(N-4-ethoxycarbonylbenzylethylthiocarbamoyl)disulphide]
IC50 [1, 5]: > 100 µM
FAAH inhibitory activity (in words) [1]: devoid of anti-FAAH activity
IC50 [2, 4]: 5.03 ± 2.35 µM

S=C(SSC(=S)N(Cc1ccccc1)Cc1ccccc1)N(Cc1ccccc1)Cc1ccccc1 [2m]
IC50 [1, 5]: > 100 µM
FAAH inhibitory activity (in words) [1]: complete loss of FAAH inhibitory activity
IC50 [2]: 3.58 ± 0.95 µM

O=C(Oc1ccc([N+](=O)[O-])cc1)N1CCN(Cc2cccc(Oc3ccccc3)c2)CC1 [JZL-195, reference compound]
IC50 [1, 5]: 0.04 ± 0.02 µM
